Test results taken from PubChem BioAssay AID463204 (Broad Institute, 2010).
Activity calls are given as the source filed them.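 How the source made its calls: active means AC50 no more than ten times the top concentration tested, that is within one log above it; inconclusive means flat curve fit with activity between 30% and 70%, or invalid poor fit; inactive means AC50 beyond ten times the top tested dose.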

System: S. cerevisiae Mot1-301 ts growth rescue, BacTiter-Glo ATP luminescence
Assay: restored Mot1-301 yeast growth at 38.5C – whole organism, S. cerevisiae, Mot1-301 ts mutant, luminescence, dose retest, SUMOylation pathway inhibitor project, confirmation (AID 463204);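 further: growth at restrictive 38.5 degrees C of Mot1-301 OY566 strain; actives raise luminescence by restoring growth of the ts mutant at high temperature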

Row | Structure (SMILES) | AC50
1 | Cc1c(=O)n(OCc2ccccn2)c2ccccc2[n+]1[O-] | > 42 µM (inactive)
2 | C/C(CC(=O)NC1CCCCC1)=N\NC(=O)Cc1ccc(-c2ccccc2)cc1 | > 42 µM (inactive)
3 | CC(C)CCOCc1nc2sc3c(c2c(=O)[nH]1)CCC(C)C3 (stereo unspecified) | > 42 µM (inactive)
4 | CN(c1ccccc1C(=O)N1CCN(Cc2ccc3c(c2)OCO3)CC1)S(C)(=O)=O | > 42 µM (inactive)
5 | CN1C(=O)c2cccc3c(Cl)ccc(c23)C1=O | > 42 µM (inactive)
6 | COc1ccccc1/C=C/C(=O)NC(=S)N1CCOCC1 | > 42 µM (inactive)
7 | O=C1CCCC2=C1C(c1ccncc1)c1c(nc(SCc3ccccc3Cl)[nH]c1=O)N2 (stereo unspecified) | > 42 µM (inactive)
8 | COc1ccc(Cc2nnc(NCCO)[nH]c2=O)cc1 | > 42 µM (inactive)
9 | CCOC(=O)C1CCCN(C(=O)c2cc(-c3ccc(F)cc3)nc3ccccc23)C1 (stereo unspecified) | > 42 µM (inactive)
10 | COc1ccc(C(=O)c2c(C)c3cc(C)ccc3n2CC(O)CN2CCOCC2)cc1 (stereo unspecified) | > 21 µM (inactive)
11 | COC(=O)c1ccc(/C=N/NC(=O)C(=O)NCC2CCCO2)cc1 (stereo unspecified) | > 42 µM (inactive)
12 | N/C(Cn1cncn1)=N\NC(=O)c1ccc(Cl)cc1Cl | > 42 µM (inactive)
13 | O=C(c1ccc([N+](=O)[O-])o1)N1CCN(c2nc3c(Cl)cccc3s2)CC1 | 6.55 µM
14 | COc1cc(/C=N/NC(=O)c2cccnc2)ccc1OCC(=O)N1CCOCC1 | > 42 µM (inactive)
15 | Cc1ccccc1-c1nc(CN2CCCC(C(=O)NCc3cccnc3)C2)c(C)o1 (stereo unspecified) | > 42 µM (inactive)
16 | CN(C(=O)CSc1nnc(-c2cccc(F)c2)n1N)C1CCS(=O)(=O)C1 (stereo unspecified) | > 42 µM (inactive)
17 | COc1ccc(NC(=O)COc2cc(C)cc(C)c2)cc1S(=O)(=O)N1CCCCC1 | > 42 µM (inactive)
18 | COc1ccccc1N1CCN(C(=O)c2sc3ncnc(N4CCN(c5ccccn5)CC4)c3c2C)CC1 | > 42 µM (inactive)
19 | COc1ccc2cc(C#N)c(Nc3cccc(F)c3)nc2c1 | > 42 µM (inactive)
20 | O=C1C2CC=C(Cl)CC2C(=O)N1c1ncn[nH]1 (stereo unspecified) | > 42 µM (inactive)
21 | Oc1ccc(C2=CSC3=NCCN23)cc1O | > 42 µM (inactive)
22 | CCOC(=O)c1cnc2ccc(Cl)cc2c1N1CCN(C)CC1 | > 42 µM (inactive)
23 | Nc1ccc(N2CCN(c3ccc(F)cc3)CC2)cc1 | > 42 µM (inactive)
24 | C=CCN1C(=O)/C(=C2/Sc3ccc(OC)cc3N2C)SC1=Nc1ccccc1 | > 42 µM (inactive)
25 | CCC(C)[C@H](N)c1nnc(SCC(=O)Nc2cccc(Cl)c2)o1 (stereo partly specified) | > 42 µM (inactive)
26 | CCn1cc(CCCC(=O)NCc2ccccc2OC)c2ccccc21 | > 42 µM (inactive)

Row | Structure (SMILES) | AC50
27 | O=C(CSc1ncccc1C(=O)O)NC1CCCCC1 | > 42 µM (inactive)
28 | CCOCCn1c(-c2ccc(OC)cc2)nc2ccccc21 | > 42 µM (inactive)
29 | O=C(Nc1ccccc1F)C1CCN(C(=O)Cc2ccccc2)CC1 | > 42 µM (inactive)
30 | CCS(=O)c1ccccc1C(=O)O (stereo unspecified) | > 42 µM (inactive)
31 | CCN(CC)C1CCN(C(=O)c2cc(COc3ccc(-n4cncn4)cc3)on2)C1 (stereo unspecified) | > 42 µM (inactive)
32 | COC(=O)c1cc(N=Nc2c(C)[nH]c3ccccc23)cc(C(=O)OC)c1 | > 42 µM (inactive)
33 | CC1(C)CC(=O)C(CC2CCCCC2=O)C(=O)C1 (stereo unspecified) | > 42 µM (inactive)
34 | O=C(CSCc1ccc(Cl)cc1)N1CCCCC1 | > 42 µM (inactive)
35 | COC(=O)c1sccc1NC(=S)N1CCCCC1 | > 42 µM (inactive)
36 | Cc1ccc(N(C(=O)CCl)C(C(=O)NC2CCCCC2)c2cccnc2)cc1C (stereo unspecified) | 9.72 µM
37 | C=CCOc1ccccc1CN1CCCC(CCC(=O)N(C)CCc2ccccn2)C1 (stereo unspecified) | > 21 µM (inactive)
38 | O=C(O)C1C(C(=O)O)C2(Cl)C(Cl)=C(Cl)C1(Cl)C2(Cl)Cl (stereo unspecified) | > 42 µM (inactive)
39 | COc1ccc(N2CCN(C(=O)Cn3nnc(-c4ccc(OC)c(OC)c4)n3)CC2)cc1 | > 42 µM (inactive)
40 | CCOC(=O)C1CCN(Cc2ccc(OCc3ccccc3)cc2)CC1 | > 42 µM (inactive)
41 | Cc1ccc(S(=O)(=O)Nc2n[nH]nc2C(=O)NC2CCCCC2)cc1 | > 42 µM (inactive)
42 | CCCOc1ccc(C(=O)NCc2ccco2)cc1 | > 42 µM (inactive)
43 | O=C(/C=C/c1ccc(Cl)cc1)NCc1ccncc1 | > 42 µM (inactive)
44 | CCOc1cc(/C=C2\NC(=O)NC2=O)ccc1OC(C)C(=O)O (stereo unspecified) | > 42 µM (inactive)
45 | Cc1cc(C)n(-c2nc(-c3cccc(Cl)c3)cs2)n1 | > 42 µM (inactive)
46 | O=C(CSc1nc(-c2ccccc2)nc2ccc(F)cc12)Nc1cccc(C(=O)O)c1 | > 42 µM (inactive)
47 | COc1ccc(Cl)cc1N(C(=O)c1ccco1)C(C(=O)NC1CCCC1)c1ccncc1 (stereo unspecified) | > 42 µM (inactive)
48 | CC1CCCC(C)N1/N=C/c1cc(Br)cc(Br)c1O (stereo unspecified) | 12.5 µM
49 | N#Cc1cc([N+](=O)[O-])cnc1NCC(O)CO (stereo unspecified) | > 42 µM (inactive)
50 | CN(CCOc1ccc(-c2ccn(S(=O)(=O)c3cccc4ccccc34)n2)cc1)c1ccccn1 | > 42 µM (inactive)
51 | O=C(N1CCOCC1)C1(S(=O)(=O)c2ccccc2)CC=CC1 | > 42 µM (inactive)
